tested on: HCV replicon, genotype-1a variant with glutamine 30 changed to glutamate in the NS5A protein; test: microbe, parasite or virus in culture; type: cell-based, HCV genotype 1a; conditions: HCV replicon genotype 1a Q30E (Q→E) variant; test compound titrated with an NS5A-targeting compound (BMS-790052 fixed at 200 nM); ranking of synergist activity
Summary of the method: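 Synergy was assessed by combining several fixed amounts of an NS5A-targeting compound with a titration of the second compound of interest.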

**Q.** Which “Fold-Synergistic 1a (Q30E)” value does the source give for `COC(=O)C1([C@H](CC(C)C)C(=O)N[C@H](c2nc(-c3ccc(-c4ccc(-c5c[nH]c([C@@H](NC(=O)[C@@H](CC(C)C)C6(C(=O)OC)CC=CC6)C(C)(C)C)n5)cc4)cc3)c[nH]2)C(C)(C)C)CC=CC1` [Compound S-294] here?
**A.** The value was greater than 100 fold.

**Q.** For `CC1(C(=O)N[C@H](c2nc(-c3ccc(-c4ccc(-c5c[nH]c([C@@H](NC(=O)C6(C)CCOCC6)C(C)(C)C)n5)cc4)cc3)c[nH]2)C(C)(C)C)CCOCC1` [Compound W-130], which “Fold-Synergistic 1a (Q30E)” value is on record?
**A.** The value was greater than 100 fold.

**Q.** Which “Fold-Synergistic 1a (Q30E)” value does the source give for `CC(C)[C@H](NC(=O)C(C)(C)F)c1nc(-c2ccc3c(c2)CCc2cc(-c4c[nH]c([C@@H](NC(=O)C(C)(C)F)C(C)C)n4)ccc2-3)c[nH]1` [Compound N-75] here?
**A.** Its value is greater than 100 fold.

**Q.** With `CC1(C(=O)N[C@H](c2nc(-c3ccc(-c4ccc(-c5c[nH]c([C@@H](NC(=O)C6(C)CC6)C(C)(C)C)n5)cc4)cc3)c[nH]2)C(C)(C)C)CC1` [Compound L-45] as the molecule, how does the “Fold-Synergistic 1a (Q30E)” value read?
**A.** The value was greater than 100 fold.

**Q.** Which “Fold-Synergistic 1a (Q30E)” value does the source give for `C[C@@H]1CN(C(=O)C(=O)N[C@H](c2nc(-c3ccc(-c4ccc(-c5c[nH]c([C@@H](NC(=O)C(=O)N6C[C@@H](C)O[C@@H](C)C6)C6(C)CC6)n5)cc4)cc3)c[nH]2)C2(C)CC2)C[C@H](C)O1` [Compound W-61] here?
**A.** The value was greater than 100 fold.

**Q.** How did the “Fold-Synergistic 1a (Q30E)” value turn out when `CN(C(=O)OC(C)(C)C)C1(C(=O)N[C@H](c2nc(-c3ccc(-c4ccc(-c5c[nH]c([C@@H](NC(=O)C6(N(C)C(=O)OC(C)(C)C)CC6)C(C)(C)C)n5)cc4)cc3)c[nH]2)C(C)(C)C)CC1` [Compound L-13] was run?
**A.** The value was greater than 100 fold.

**Q.** How did the “Fold-Synergistic 1a (Q30E)” value turn out when `CC(C)(C)[C@H](NC(=O)C1(O)CCCC1)c1nc(-c2ccc(-c3ccc(-c4c[nH]c([C@@H](NC(=O)C5(O)CCCC5)C(C)(C)C)n4)cc3)cc2)c[nH]1` [Compound L-73] was run?
**A.** Its value is greater than 100 fold.

**Q.** How did the “Fold-Synergistic 1a (Q30E)” value turn out when `COC(C)(C)C(=O)N[C@H](c1nc(-c2ccc(-c3ccc(-c4c[nH]c([C@@H](NC(=O)C(C)(C)OC)C(C)C)n4)cn3)cc2)c[nH]1)C(C)C` [Compound N-102] was run?
**A.** Its value is greater than 100 fold.

**Q.** Which “Fold-Synergistic 1a (Q30E)” value does the source give for `CC[C@H](NC(=O)[C@H](NC(=O)OC)C(C)C)c1nc(-c2ccc(-c3ccc(-c4c[nH]c([C@H](CC)NC(=O)[C@H](NC(=O)OC)C(C)C)n4)cc3)cc2)c[nH]1` [Compound N-40] here?
**A.** Its value is greater than 100 fold.

**Q.** Which “Fold-Synergistic 1a (Q30E)” value does the source give for `CCN(CCC#N)C(=O)C(C)(C)C(=O)N[C@H](c1nc(-c2ccc(-c3ccc(-c4c[nH]c([C@@H](NC(=O)C(C)(C)C(=O)N(CC)CCC#N)C(C)(C)C)n4)cc3)cc2)c[nH]1)C(C)(C)C` [Compound W-158] here?
**A.** The value was greater than 100 fold.

**Q.** For `CC(C)(C)[C@H](NC(=O)[C@H]1CC[C@@H](O)CC1)c1nc(-c2ccc(-c3ccc(-c4c[nH]c([C@@H](NC(=O)[C@H]5CC[C@@H](O)CC5)C(C)(C)C)n4)cc3)cc2)c[nH]1` [Compound W-134], which “Fold-Synergistic 1a (Q30E)” value is on record?
**A.** The value was greater than 100 fold.

**Q.** `CC(C)(C)[C@H](NC(=O)C(=O)N1CCC(F)CC1)c1nc(-c2ccc(-c3ccc(-c4c[nH]c([C@@H](NC(=O)C(=O)N5CCC(F)CC5)C(C)(C)C)n4)cc3)cc2)c[nH]1` [Compound W-26] was tested. Which “Fold-Synergistic 1a (Q30E)” value did it give?
**A.** Its value is greater than 100 fold.

**Q.** How did the “Fold-Synergistic 1a (Q30E)” value turn out when `CN(C(=O)OC(C)(C)C)C1(C(=O)N[C@H](c2nc(-c3ccc(-c4ccc(-c5c[nH]c([C@@H](NC(=O)C6(N(C)C(=O)OC(C)(C)C)CCC6)C(C)(C)C)n5)cc4)cc3)c[nH]2)C(C)(C)C)CCC1` [Compound L-14] was run?
**A.** The value was greater than 100 fold.

**Q.** How did the “Fold-Synergistic 1a (Q30E)” value turn out when `CC(C)(C)[C@H](NC(=O)C1CC(=O)C1)c1nc(-c2ccc(-c3ccc(-c4c[nH]c([C@@H](NC(=O)C5CC(=O)C5)C(C)(C)C)n4)cc3)cc2)c[nH]1` [Compound W-171] was run?
**A.** Its value is greater than 100 fold.

**Q.** For `CO[C@](C(=O)N[C@H](c1nc(-c2ccc(-c3ccc(-c4c[nH]c([C@@H](NC(=O)[C@@](OC)(c5ccccc5)C(F)(F)F)C(C)(C)C)n4)cc3)cc2)c[nH]1)C(C)(C)C)(c1ccccc1)C(F)(F)F` [Compound P-141], which “Fold-Synergistic 1a (Q30E)” value is on record?
**A.** The value was greater than 100 fold.

**Q.** `CC1([C@H](NC(=O)[C@@]2(C)CCCCO2)c2nc(-c3ccc(-c4ccc(-c5c[nH]c([C@@H](NC(=O)[C@@]6(C)CCCCO6)C6(C)CC6)n5)cc4)cc3)c[nH]2)CC1` [Compound P-187] was tested. Which “Fold-Synergistic 1a (Q30E)” value did it give?
**A.** The value was greater than 100 fold.

Reference: patent US9326973B2, “Hepatitis C virus inhibitors” (priority 2012, dated 2016)
